ChEMBL document CHEMBL3632622, “Synthesis and biological evaluation of novel N-phenyl ureidobenzenesulfonate derivatives as potential anticancer agents. Part 2. Modulation of the ring B” (Eur J Med Chem, 2015)
Active and inactive are the calls of the source. No cut-off for these calls is given here.

Assays:
[1] = test system: M21; experiment: Cell cycle arrest in human M21 cells assessed as accumulation at G0/G1 phase at 8.1 uM after 24 hrs by DAPI staining-based flow cytometry (reference value: 65.1%); format: functional
[2] = test system: M21; experiment: Cell cycle arrest in human M21 cells assessed as accumulation at G2/M phase at 8.1 uM after 24 hrs by DAPI staining-based flow cytometry (reference value: 16%); format: functional
[3] = test system: M21; experiment: Cell cycle arrest in human M21 cells assessed as accumulation at subG1 phase at 8.1 uM after 24 hrs by DAPI staining-based flow cytometry (reference value: 1.5%); format: functional
[4] = test system: M21; experiment: Antiproliferative activity against human M21 cells assessed as growth inhibition incubated for 48 hrs by sulforhodamine B assay; format: functional, cell-based; conditions: M21, 48 h
[5] = test system: M21; experiment: Cell cycle arrest in human M21 cells assessed as accumulation at S phase at 8.1 uM after 24 hrs by DAPI staining-based flow cytometry (reference value: 17.4%); format: functional
[6] = test system: MCF7; experiment: Antiproliferative activity against human MCF7 cells assessed as growth inhibition incubated for 48 hrs by sulforhodamine B assay; format: functional, cell-based; conditions: MCF7, 48 h
[7] = test system: HT-29; experiment: Antiproliferative activity against human HT-29 cells assessed as growth inhibition incubated for 48 hrs by sulforhodamine B assay; format: functional, cell-based; conditions: HT-29, 48 h
[8] = Antiproliferative activity against human HT1080 cells assessed as growth inhibition incubated for 48 hrs by sulforhodamine B assay; format: functional, cell-based, HT-1080; conditions: Homo sapiens, HT-1080, 48 h; read-out: IC50
[9] = test system: M21; experiment: Induction DNA DSBs in human M21 cells assessed as increase in gamma H2AX foci at 20 uM incubated for 24 hrs by DAPI staining based immunocytochemistry; format: cell-based
[10] = test system: M21; experiment: Cell cycle arrest in human M21 cells assessed as accumulation at S phase at 2.6 uM after 24 hrs by DAPI staining-based flow cytometry (reference value: 17.4%); format: functional
[11] = test system: M21; experiment: Cell cycle arrest in human M21 cells assessed as accumulation at G0/G1 phase at 2.6 uM after 24 hrs by DAPI staining-based flow cytometry (reference value: 65.1%); format: functional
[12] = test system: M21; experiment: Cell cycle arrest in human M21 cells assessed as accumulation at G2/M phase at 2.6 uM after 24 hrs by DAPI staining-based flow cytometry (reference value: 16%); format: functional
[13] = test system: M21; experiment: Cell cycle arrest in human M21 cells assessed as accumulation at subG1 phase at 2.6 uM after 24 hrs by DAPI staining-based flow cytometry (reference value: 1.5%); format: functional
[14] = test system: M21; experiment: Cell cycle arrest in human M21 cells assessed as accumulation at G0/G1 phase at 13 uM after 24 hrs by DAPI staining-based flow cytometry (reference value: 65.1%); format: functional
[15] = test system: M21; experiment: Cell cycle arrest in human M21 cells assessed as accumulation at G2/M phase at 13 uM after 24 hrs by DAPI staining-based flow cytometry (reference value: 16%); format: functional
[16] = test system: M21; experiment: Cell cycle arrest in human M21 cells assessed as accumulation at S phase at 13 uM after 24 hrs by DAPI staining-based flow cytometry (reference value: 17.4%); format: functional
[17] = test system: M21; experiment: Cell cycle arrest in human M21 cells assessed as accumulation at subG1 phase at 13 uM after 24 hrs by DAPI staining-based flow cytometry (reference value: 1.5%); format: functional
[18] = test system: M21; experiment: Cell cycle arrest in human M21 cells assessed as accumulation at G2/M phase at 5.9 uM after 24 hrs by DAPI staining-based flow cytometry (reference value: 16%); format: functional
[19] = test system: M21; experiment: Cell cycle arrest in human M21 cells assessed as accumulation at subG1 phase at 5.9 uM after 24 hrs by DAPI staining-based flow cytometry (reference value: 1.5%); format: functional
[20] = test system: M21; experiment: Induction DNA DSBs in human M21 cells assessed as increase in gamma H2AX foci at 15 uM incubated for 24 hrs by DAPI staining based immunocytochemistry; format: cell-based
[21] = test system: M21; experiment: Cell cycle arrest in human M21 cells assessed as accumulation at G0/G1 phase at 5.9 uM after 24 hrs by DAPI staining-based flow cytometry (reference value: 65.1%); format: functional
[22] = test system: M21; experiment: Cell cycle arrest in human M21 cells assessed as accumulation at S phase at 5.9 uM after 24 hrs by DAPI staining-based flow cytometry (reference value: 17.4%); format: functional
[23] = test system: M21; experiment: Induction DNA DSBs in human M21 cells assessed as increase in gamma H2AX foci at 4.1 uM incubated for 24 hrs by DAPI staining based immunocytochemistry; format: cell-based
[24] = test system: M21; experiment: Cell cycle arrest in human M21 cells assessed as accumulation at G2/M phase at 4.1 uM after 24 hrs by DAPI staining-based flow cytometry (reference value: 16%); format: functional
[25] = test system: M21; experiment: Cell cycle arrest in human M21 cells assessed as accumulation at subG1 phase at 4.1 uM after 24 hrs by DAPI staining-based flow cytometry (reference value: 1.5%); format: functional
[26] = test system: M21; experiment: Cell cycle arrest in human M21 cells assessed as accumulation at S phase at 4.1 uM after 24 hrs by DAPI staining-based flow cytometry (reference value: 17.4%); format: functional
[27] = test system: M21; experiment: Cell cycle arrest in human M21 cells assessed as accumulation at G0/G1 phase at 4.1 uM after 24 hrs by DAPI staining-based flow cytometry (reference value: 65.1%); format: functional
[28] = test system: M21; experiment: Cell cycle arrest in human M21 cells assessed as accumulation at G2/M phase at 3.9 uM after 24 hrs by DAPI staining-based flow cytometry (reference value: 16%); format: functional
[29] = test system: M21; experiment: Cell cycle arrest in human M21 cells assessed as accumulation at S phase at 3.9 uM after 24 hrs by DAPI staining-based flow cytometry (reference value: 17.4%); format: functional
[30] = test system: M21; experiment: Induction DNA DSBs in human M21 cells assessed as increase in gamma H2AX foci at 3.9 uM incubated for 24 hrs by DAPI staining based immunocytochemistry; format: cell-based
[31] = test system: M21; experiment: Cell cycle arrest in human M21 cells assessed as accumulation at subG1 phase at 3.9 uM after 24 hrs by DAPI staining-based flow cytometry (reference value: 1.5%); format: functional
[32] = test system: M21; experiment: Cell cycle arrest in human M21 cells assessed as accumulation at G0/G1 phase at 3.9 uM after 24 hrs by DAPI staining-based flow cytometry (reference value: 65.1%); format: functional
[33] = test system: M21; experiment: Cell cycle arrest in human M21 cells assessed as accumulation at G0/G1 phase at 5.4 uM after 24 hrs by DAPI staining-based flow cytometry (reference value: 65.1%); format: functional
[34] = test system: M21; experiment: Cell cycle arrest in human M21 cells assessed as accumulation at S phase at 5.4 uM after 24 hrs by DAPI staining-based flow cytometry (reference value: 17.4%); format: functional
[35] = test system: M21; experiment: Cell cycle arrest in human M21 cells assessed as accumulation at G2/M phase at 5.4 uM after 24 hrs by DAPI staining-based flow cytometry (reference value: 16%); format: functional
[36] = test system: M21; experiment: Cell cycle arrest in human M21 cells assessed as accumulation at subG1 phase at 5.4 uM after 24 hrs by DAPI staining-based flow cytometry (reference value: 1.5%); format: functional
[37] = test system: M21; experiment: Induction DNA DSBs in human M21 cells assessed as increase in gamma H2AX foci at 5.4 uM incubated for 24 hrs by DAPI staining based immunocytochemistry; format: cell-based
[38] = test system: M21; experiment: Cell cycle arrest in human M21 cells assessed as accumulation at G0/G1 phase at 3.3 uM after 24 hrs by DAPI staining-based flow cytometry (reference value: 65.1%); format: functional
[39] = test system: M21; experiment: Cell cycle arrest in human M21 cells assessed as accumulation at subG1 phase at 3.3 uM after 24 hrs by DAPI staining-based flow cytometry (reference value: 1.5%); format: functional
[40] = test system: M21; experiment: Induction DNA DSBs in human M21 cells assessed as increase in gamma H2AX foci at 3.3 uM incubated for 24 hrs by DAPI staining based immunocytochemistry; format: functional, cell-based
[41] = test system: M21; experiment: Cell cycle arrest in human M21 cells assessed as accumulation at S phase at 3.3 uM after 24 hrs by DAPI staining-based flow cytometry (reference value: 17.4%); format: functional
[42] = test system: M21; experiment: Cell cycle arrest in human M21 cells assessed as accumulation at G2/M phase at 3.3 uM after 24 hrs by DAPI staining-based flow cytometry (reference value: 16%); format: functional
[43] = test system: M21; experiment: Cell cycle arrest in human M21 cells assessed as accumulation at G0/G1 phase at 10 uM after 24 hrs by DAPI staining-based flow cytometry (reference value: 65.1%); format: functional
[44] = test system: M21; experiment: Cell cycle arrest in human M21 cells assessed as accumulation at subG1 phase at 10 uM after 24 hrs by DAPI staining-based flow cytometry (reference value: 1.5%); format: functional
[45] = test system: M21; experiment: Cell cycle arrest in human M21 cells assessed as accumulation at G2/M phase at 10 uM after 24 hrs by DAPI staining-based flow cytometry (reference value: 16%); format: functional
[46] = test system: M21; experiment: Cell cycle arrest in human M21 cells assessed as accumulation at S phase at 10 uM after 24 hrs by DAPI staining-based flow cytometry (reference value: 17.4%); format: functional
[47] = test system: M21; experiment: Induction DNA DSBs in human M21 cells assessed as increase in gamma H2AX foci at 10 uM incubated for 24 hrs by DAPI staining based immunocytochemistry; format: cell-based

Structure (SMILES): O=C(NCCCl)Nc1ccc(S(=O)(=O)Oc2ccccc2F)cc1
- Activity [1]: 25.2%
- Activity [2]: 34.6%
- Activity [3]: 2.6%
- IC50 [4]: 4000 nM
- Activity [5]: 37.6%
- IC50 [6]: 6000 nM
- IC50 [7]: 5400 nM
- IC50 [8]: 3200 nM
- Activity [9]: Active

Structure (SMILES): CCCc1ccccc1OS(=O)(=O)c1ccc(NC(=O)NCCCl)cc1
- Activity [10]: 37%
- IC50 [4]: 1300 nM
- Activity [11]: 36%
- Activity [12]: 25.7%
- IC50 [6]: 2100 nM
- IC50 [7]: 1900 nM
- IC50 [8]: 1900 nM
- Activity [13]: 1.3%

Structure (SMILES): O=C(NCCCl)Nc1ccc(S(=O)(=O)Oc2cccc(Br)c2)cc1
- IC50 [4]: 2200 nM
- Activity [14]: 1.6%
- Activity [15]: 92.4%
- Activity [16]: 1.6%
- Activity [17]: 4.4%
- IC50 [6]: 2600 nM
- IC50 [7]: 2100 nM
- IC50 [8]: 2000 nM

Structure (SMILES): O=C(NCCCl)Nc1ccc(S(=O)(=O)Oc2ccccc2[N+](=O)[O-])cc1
- IC50 [4]: 3900 nM
- Activity [18]: 23.1%
- Activity [19]: 1.4%
- Activity [20]: Active
- Activity [21]: 32.5%
- Activity [22]: 43%
- IC50 [6]: 7400 nM
- IC50 [7]: 5700 nM
- IC50 [8]: 2400 nM

Structure (SMILES): Cc1ccc(OS(=O)(=O)c2ccc(NC(=O)NCCCl)cc2)c(C)c1
- IC50 [4]: 2100 nM
- Activity [23]: Active
- Activity [24]: 23.8%
- Activity [25]: 1.4%
- Activity [26]: 46.4%
- IC50 [6]: 3900 nM
- IC50 [7]: 3600 nM
- IC50 [8]: 1300 nM
- Activity [27]: 28.4%

Structure (SMILES): Cc1cccc(C)c1OS(=O)(=O)c1ccc(NC(=O)NCCCl)cc1
- Activity [28]: 20.3%
- IC50 [4]: 2000 nM
- Activity [29]: 47.1%
- Activity [30]: Active
- Activity [31]: 1.6%
- IC50 [6]: 3700 nM
- IC50 [7]: 2800 nM
- Activity [32]: 31%
- IC50 [8]: 1100 nM

Structure (SMILES): Cc1ccccc1OS(=O)(=O)c1ccc(NC(=O)NCCCl)cc1
- Activity [33]: 39.2%
- Activity [34]: 39%
- Activity [35]: 19.5%
- IC50 [4]: 4500 nM
- Activity [36]: 2.3%
- IC50 [6]: 6100 nM
- IC50 [7]: 4900 nM
- IC50 [8]: 1600 nM
- Activity [37]: Active

Structure (SMILES): Cc1cc(C)c(OS(=O)(=O)c2ccc(NC(=O)NCCCl)cc2)cc1C
- Activity [38]: 27.5%
- Activity [39]: 1.7%
- Activity [40]: Active
- IC50 [4]: 1700 nM
- Activity [41]: 43.8%
- IC50 [6]: 3000 nM
- IC50 [7]: 2300 nM
- IC50 [8]: 1000 nM
- Activity [42]: 27%

Structure (SMILES): O=C(NCCCl)Nc1ccc(S(=O)(=O)Oc2ccccc2Cl)cc1
- Activity [43]: 43.8%
- IC50 [4]: 2100 nM
- Activity [44]: 1.9%
- Activity [45]: 21%
- Activity [46]: 33.3%
- Activity [47]: Active
- IC50 [6]: 4200 nM
- IC50 [7]: 3500 nM
- IC50 [8]: 1100 nM

Structure (SMILES): O=C(NCCCl)Nc1ccc(S(=O)(=O)Oc2cccc(Cl)c2)cc1
- IC50 [4]: 2600 nM
- Activity [14]: 7.2%
- Activity [15]: 80.6%
- Activity [16]: 7%
- Activity [17]: 5.2%
- IC50 [6]: 3700 nM
- IC50 [7]: 2800 nM
- IC50 [8]: 2600 nM
